Data as given in US9981043B2, “Analgesic conjugates” (priority 2013, dated 2018).
Several values for one entry are separate records, joined by “and”; a condition that tells them apart may be missing. Identical values can stand only once. Entries after “also recorded” stand apart in the source; their conditions may differ.

How the values were obtained:
[1] = tested on: C3H mice with bone cancer; assay: von Frey mechanical hyperalgesia, bone cancer (fibrosarcoma) mice; format: in vivo
Procedure: The mouse hind paw model of bone cancer was the third model of pain (Wacnik P W, et al., Pain Research & Management, 2000, 16, 615-637; and Wacnik P W, et al., J Neurosci, 2001, 21(23), 9355-9366). Cell Culture: National Collection of Type Cultures (NCTC) clone 2472 fibrosarcoma cells, originally derived from a connective tissue tumor in a C3H mouse, were obtained from the American Type Cell Culture Collection (Rockville, Md.). Cells were grown and maintained in accordance with standard cell culturing techniques. NCTC cells were grown to 80-90% confluence in 75 cm^2 flasks (Corning, Lowell, Mass.) in Dulbecco's Modification of Eagles Medium (Invitrogen, Carlsbad, Calif.) fortified with 10% Horse Serum and sodium bicarbonate. Cell cultures were housed in a water-jacketed incubator with 5% carbon dioxide at 37° C.
Cells were prepared for implantation by first pouring off the culture medium and washing with phosphate-buffered saline (PBS). Trypsin was added to flask and placed in incubator for 3 minutes. Upon detachment, cells were suspended in an ample amount of culture medium to terminate enzymatic activity and centrifuged for 10 min at 1000 g. Fibrosarcoma cells were re-suspended in a known amount of PBS for counting, quantified on a hemacytometer, pelleted and re-suspended in PBS. Fibrosarcoma cells were again re-suspended to a final concentration of 2×10^5 cells in 20 μl. Initially, animals were anesthetized in a plexi-glass chamber using 3% isoflurane in 3 L/min oxygen. Once each mouse was completely anesthetized, a maintenance rate of 2% isoflurane in 1.5 L/min oxygen was maintained during the short implantation procedure. Tumor cells were manually injected by boring into the calcaneus bone using a 29½ gauge needle connected to a sterile 0.3 ml insulin syringe as previously described (19). Following injection, mice were allowed to recover in cages on a heating pad. Animals showing any signs of dysfunction (e.g. problems with ambulation, lethargy or excessive bleeding) or distress where euthanized according to CO2 guidelines.
C3H mice were was placed under a clean glass cup on a wire mesh grid and allowed to acclimate for thirty minutes. Mechanical hypersensitivity was tested using a von Frey filament #3.61 (which produces a force of […]) to the plantar surface of both the left and right hind paw with enough force to cause it to bow slightly. Starting with the right hind paw, the number of positive responses out of a total of 10 applications was recorded followed by the left hind paw. Positive response was indicated by a sharp withdrawal or flinching behavior of the paw. Baseline von Frey measurements were obtained prior to treatment with CFA, tumor and saline controls. […] Subsequent measurements were taken at various time points after intrathecal (i.t.) injection of test compounds on days 3, 7, 10, 14, 17, and 21. % MPE was calculated ((Time-point value−Day# baseline)/(Day 0 baseline−day# baseline))*100 (Smeester B A, Al-Gizawiy M, & Beitz A J (2012) Evidence-Based Complementary and Alternative Medicine 2012:16). Animals with saline injection served as controls for tumor cell implantation and tumor-induced nociception. Behavioral assessments were conducted during the light cycle at approximately the same time each day. The investigator performing the von Frey testing was blinded to the animal and compound injected.
A well-established rodent hind paw model of bone cancer pain (Wacnik P W, et al., J Neurosci. 2001, 21(23), 9355-66) was to examine the effects of representative bivalent ligands on tumor-induced nociception. The inbred C3H/He line is syngeneic to the fibrosarcoma cells used in these experiments and allows these cells to grow tumors without rejection. Male C3H mice were used for all experiments. Animals were maintained on a 12 hour light/dark cycle with food and water ad libitum.
Cells were prepared for implantation by first pouring off the culture medium and washing with phosphate-buffered saline (PBS). […]

mice = assay: Rota-Rod motor performance, CFA injected mice; format: in vivo; details: i.t., after the 48 hour measurement post CFA
Procedure: To first evaluate the effects of CFA injection on motor coordination, a group of 10 animals were tested on the Rotamex (Columbus Instruments Rotamex 4/8 instrument) for performance. Animals were trained three days prior to undergoing 3-5 minute trials on an accelerating rotating rod (0-20 RPMs). Motor performance was evaluated at 2, 4, 6, 24 and 48 hours post injection. Compound 4c was then injected i.t. and the motor performance was evaluated at 5 and 20 minutes. The time to the first fall were recorded and compared with controls (Kovacs K J, et al., Pain, 2008, 136, 75-84). The results for compound 4c are illustrated in FIG. 10.

For Cc1cccc(C#Cc2cccc(OCCNC(=O)COCC(=O)NCCCCCNC(=O)COCC(=O)N[C@H]3CC[C@@]4(O)C5Cc6ccc(O)c7c6[C@@]4(CCN5C)[C@H]3O7)c2)n1 [Compound 4c, N-((4aS,7S,7aR,12bS)-4a,9-dihydroxy-3-methyl-2,3,4,4a,5,6,7,7a-octahydro-1H-4,12-methanobenzofuro[3,2-e]isoquinolin-7-yl)-2-((1-(3-((6-methylpyridin-2-yl)ethynyl)phenoxy)-4,8,16-trioxo-6-oxa-3,9,15-triazaheptadecan-17-yl)oxy)acetamide], which Tolerance ([1]; bone cancer mice, i.t.) is on record?
Its Tolerance is “without tolerance; also recorded: absence of tolerance”.

What about the “duration of significant antinociception” value ([1]; bone cancer, PID 21, 1 nmol i.t.) of the same compound?
Its value is 12 h.

What about the duration of antinociception ([1]; bone cancer, PID 21, single 10 nmol i.t.) of the same compound?
Its duration of antinociception is 24 h and > 24 h.

What about the ED50 i.t. ([1]; bone cancer, day 21, i.t.) of the same compound?
Its ED50 i.t. is 0.01 fmol/mouse.

What about the “antinociception in tumor-bearing mice” value ([1]; bone cancer, i.t., beginning on PID 3) of the same compound?
Its value is “potent antinociception”.

And the “time on the Rotamex (time to first fall)” value (mice)?
The value was “stayed on the Rotomex for a longer period of time”.
